Results: PubChem BioAssay AID256 (DTP/NCI, 2004)
“And” between values parts separate entries of the source, which are not always exact repeats. Equal entries are not always repeated. Inconclusive results and toxic doses are left out. How the source made its calls: active means survival T/C of 150% or more; inactive means T/C below 125% in these data.

Test system: CD2F1 mice, L1210 leukemia ip, survival T/C
Assay: NCI In Vivo Anticancer Drug Screen. Data for tumor model L1210 Leukemia (intraperitoneal) in CD2F1 (CDF1) mice
Settings: higher = longer survival
Method in brief: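 Read-out first: treated-group measurement over vehicle-control measurement, expressed as a ratio. Animals bore a transplanted tumor line and were dosed with compound or vehicle.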

[1] = endpoint: mean survival time, dose: 100.0 mg/kg/injection, schedule: Q01DX001 (ip), vehicle: saline with Tween-80
[2] = endpoint: mean survival time, dose: 200.0 mg/kg/injection, schedule: Q01DX001 (ip), vehicle: saline with Tween-80
[3] = endpoint: mean survival time, dose: 400.0 mg/kg/injection, schedule: Q01DX001 (ip), vehicle: saline with Tween-80
[4] = endpoint: mean survival time, dose: 25.0 mg/kg/injection, schedule: Q01DX009 (ip), vehicle: Klucel (hydroxypropylcellulose) (HPC)
[5] = endpoint: mean survival time, dose: 100.0 mg/kg/injection, schedule: Q01DX009 (ip), vehicle: saline with Tween-80
[6] = endpoint: mean survival time, dose: 200.0 mg/kg/injection, schedule: Q01DX009 (ip), vehicle: saline with Tween-80
[7] = endpoint: mean survival time, dose: 25.0 mg/kg/injection, schedule: Q04DX003 (ip), vehicle: saline
[8] = endpoint: mean survival time, dose: 50.0 mg/kg/injection, schedule: Q04DX003 (ip), vehicle: saline
[9] = endpoint: mean survival time, dose: 100.0 mg/kg/injection, schedule: Q04DX003 (ip), vehicle: saline
[10] = endpoint: mean survival time, dose: 100.0 mg/kg/injection, schedule: Q04DX003 (ip), vehicle: water

Measured: T/C

OCCOc1ccc2ccccc2c1
inactive: [1] 100 % of control | endpoint: mean survival time, dose: 100.0 mg/kg/injection, schedule: Q04DX003 (ip), vehicle: saline + alcohol 97 % of control | [2] 108 % of control | endpoint: mean survival time, dose: 200.0 mg/kg/injection, schedule: Q04DX003 (ip), vehicle: saline + alcohol 95 % of control | [3] 103 % of control | endpoint: mean survival time, dose: 400.0 mg/kg/injection, schedule: Q04DX003 (ip), vehicle: saline + alcohol 91 % of control

CC(=O)Nc1c(Cl)c(Cl)c2c(c1Cl)Cc1cc(Br)ccc1-2
inactive: [4] 109 % of control

[Cl][Pt+2][Cl].[NH-]C1CCCCC1[NH-] (stereo not given)
inactive: endpoint: mean survival time, dose: 0.39 mg/kg/injection, schedule: Q04DX003 (ip), vehicle: saline with Tween-80 124 % of control | endpoint: mean survival time, dose: 1.56 mg/kg/injection, schedule: Q04DX002 (ip), vehicle: saline 119 % of control and 124 % of control | endpoint: median survival time, dose: 20.0 mg/kg/injection, schedule: Q04DX003 (ip), vehicle: saline 100 % of control

Nc1ccc(C(=O)Oc2ccc([N+](=O)[O-])cc2)cc1
inactive: [5] 108 % of control | [6] 102 % of control | endpoint: mean survival time, dose: 400.0 mg/kg/injection, schedule: Q01DX009 (ip), vehicle: saline with Tween-80 98 % of control

O=[N+]([O-])O.[Er]
inactive: [7] 96 % of control | [8] 87 % of control | [9] 87 % of control

[NH-]C(CO)C(=O)O.[NH-]C(CO)C(=O)O.[Pd+2] (stereo not given)
inactive: endpoint: mean survival time, dose: 3.13 mg/kg/injection, schedule: Q04DX003 (ip), vehicle: distilled water + Tween-80 104 % of control | endpoint: mean survival time, dose: 3.13 mg/kg/injection, schedule: Q04DX003 (ip), vehicle: saline 114 % of control | endpoint: mean survival time, dose: 3.13 mg/kg/injection, schedule: Q04DX003 (ip), vehicle: water 95 % of control | endpoint: mean survival time, dose: 6.25 mg/kg/injection, schedule: Q04DX003 (ip), vehicle: distilled water + Tween-80 96 % of control | endpoint: mean survival time, dose: 6.25 mg/kg/injection, schedule: Q04DX003 (ip), vehicle: saline 94 % of control | endpoint: mean survival time, dose: 6.25 mg/kg/injection, schedule: Q04DX003 (ip), vehicle: water 95 % of control | endpoint: mean survival time, dose: 12.5 mg/kg/injection, schedule: Q04DX003 (ip), vehicle: distilled water + Tween-80 98 % of control | endpoint: mean survival time, dose: 12.5 mg/kg/injection, schedule: Q04DX003 (ip), vehicle: saline 102 % of control | endpoint: mean survival time, dose: 12.5 mg/kg/injection, schedule: Q04DX003 (ip), vehicle: water 97 % of control | endpoint: mean survival time, dose: 25.0 mg/kg/injection, schedule: Q04DX003 (ip), vehicle: distilled water + Tween-80 95 % of control | [7] 103 % of control | endpoint: mean survival time, dose: 25.0 mg/kg/injection, schedule: Q04DX003 (ip), vehicle: water 96 % of control | endpoint: mean survival time, dose: 50.0 mg/kg/injection, schedule: Q04DX003 (ip), vehicle: distilled water + Tween-80 98 % of control | [8] 107 % of control | endpoint: mean survival time, dose: 50.0 mg/kg/injection, schedule: Q04DX003 (ip), vehicle: water 105 % of control | endpoint: mean survival time, dose: 100.0 mg/kg/injection, schedule: Q04DX003 (ip), vehicle: distilled water + Tween-80 102 % of control | [9] 106 % of control | [10] 91 % of control

Cc1cccc(NC(=O)/C=C/c2ccccc2)c1C
inactive: endpoint: mean survival time, dose: 100.0 mg/kg/injection, schedule: Q04DX002 (ip), vehicle: saline with Tween-80 98 % of control | endpoint: mean survival time, dose: 200.0 mg/kg/injection, schedule: Q04DX002 (ip), vehicle: saline with Tween-80 94 % of control | endpoint: mean survival time, dose: 400.0 mg/kg/injection, schedule: Q04DX002 (ip), vehicle: saline with Tween-80 94 % of control

COc1ccc(/C=N\NC(=O)CCCCCCCCC(=O)N/N=C\c2ccc(OC)c(O)c2)cc1O
inactive: endpoint: mean survival time, dose: 50.0 mg/kg/injection, schedule: Q01DX009 (ip), vehicle: saline with Tween-80 97 % of control | [5] 97 % of control | [6] 105 % of control

Cc1c(Cl)c(C)c(Cl)c(O)c1Cl (tested in a mixture with another compound)
inactive: endpoint: mean survival time, dose: 50.0 mg/kg/injection, schedule: Q01DX005 (ip), vehicle: saline with Tween-80 97 % of control | endpoint: mean survival time, dose: 100.0 mg/kg/injection, schedule: Q01DX005 (ip), vehicle: saline with Tween-80 91 % of control

O=C(O)C1CC1
inactive: endpoint: mean survival time, dose: 100.0 mg/kg/injection, schedule: Q01DX001 (ip), vehicle: saline 96 % of control | endpoint: mean survival time, dose: 200.0 mg/kg/injection, schedule: Q01DX001 (ip), vehicle: saline 108 % of control

CCOC(=O)CC(=O)COC(=O)CC(=O)OCC
inactive: endpoint: mean survival time, dose: 12.5 mg/kg/injection, schedule: Q01DX009 (ip), vehicle: other 96 % of control | endpoint: mean survival time, dose: 25.0 mg/kg/injection, schedule: Q01DX009 (ip), vehicle: other 100 % of control | endpoint: mean survival time, dose: 50.0 mg/kg/injection, schedule: Q01DX009 (ip), vehicle: other 94 % of control | endpoint: mean survival time, dose: 100.0 mg/kg/injection, schedule: Q01DX009 (ip), vehicle: other 97 % of control | endpoint: mean survival time, dose: 200.0 mg/kg/injection, schedule: Q01DX009 (ip), vehicle: other 97 % of control

NNC(=O)c1ncn(C2OC(CO)C(O)C2O)c1C(=O)NN (stereo not given)
inactive: endpoint: mean survival time, dose: 12.5 mg/kg/injection, schedule: Q01DX005 (ip), vehicle: water 103 % of control | endpoint: mean survival time, dose: 25.0 mg/kg/injection, schedule: Q01DX005 (ip), vehicle: water 101 % of control | endpoint: mean survival time, dose: 50.0 mg/kg/injection, schedule: Q01DX005 (ip), vehicle: water 95 % of control | endpoint: mean survival time, dose: 100.0 mg/kg/injection, schedule: Q01DX005 (ip), vehicle: water 103 % of control | endpoint: mean survival time, dose: 200.0 mg/kg/injection, schedule: Q01DX005 (ip), vehicle: water 97 % of control

CC(=O)Nc1ccc(CN2CC(C)N(N)C(C)C2)cc1 (stereo not given)
inactive: endpoint: mean survival time, dose: 12.5 mg/kg/injection, schedule: Q01DX009 (ip), vehicle: Klucel (hydroxypropylcellulose) (HPC) 103 % of control | [4] 98 % of control | endpoint: mean survival time, dose: 50.0 mg/kg/injection, schedule: Q01DX009 (ip), vehicle: Klucel (hydroxypropylcellulose) (HPC) 98 % of control | endpoint: mean survival time, dose: 100.0 mg/kg/injection, schedule: Q01DX009 (ip), vehicle: Klucel (hydroxypropylcellulose) (HPC) 101 % of control | endpoint: mean survival time, dose: 200.0 mg/kg/injection, schedule: Q01DX009 (ip), vehicle: Klucel (hydroxypropylcellulose) (HPC) 103 % of control | endpoint: mean survival time, dose: 400.0 mg/kg/injection, schedule: Q01DX009 (ip), vehicle: Klucel (hydroxypropylcellulose) (HPC) 89 % of control

CCOC(=O)NC(NC(=O)OCC)C(Cl)Cl
inactive: [1] 103 % of control | [2] 105 % of control | [3] 97 % of control

COc1cc(-c2nc(-c3ccc(N=Cc4ccc(N(CCCOS(C)(=O)=O)CCCOS(C)(=O)=O)cc4)cc3)cs2)ccc1OCc1ccccc1
inactive: [1] 91 % of control | [2] 95 % of control | [6] 86 % of control | [3] 89 % of control

c1ccc(Cc2ccccn2)cc1
inactive: [10] 93 % of control | endpoint: mean survival time, dose: 200.0 mg/kg/injection, schedule: Q04DX003 (ip), vehicle: water 101 % of control | endpoint: mean survival time, dose: 400.0 mg/kg/injection, schedule: Q04DX003 (ip), vehicle: water 104 % of control

CC1(C)COCN1COC1CCCCC1
inactive: endpoint: mean survival time, dose: 12.5 mg/kg/injection, schedule: Q01DX009 (ip), vehicle: suspension in saline 95 % of control | endpoint: mean survival time, dose: 25.0 mg/kg/injection, schedule: Q01DX009 (ip), vehicle: suspension in saline 100 % of control | endpoint: mean survival time, dose: 50.0 mg/kg/injection, schedule: Q01DX009 (ip), vehicle: suspension in saline 103 % of control | endpoint: mean survival time, dose: 100.0 mg/kg/injection, schedule: Q01DX009 (ip), vehicle: suspension in saline 108 % of control | endpoint: mean survival time, dose: 200.0 mg/kg/injection, schedule: Q01DX009 (ip), vehicle: suspension in saline 105 % of control

CCOc1ccc(C(C)c2cc3c(cc2OC)OCO3)cc1 (stereo not given)
active: endpoint: median survival time, dose: 200.0 mg/kg/injection, schedule: Q01DX009 (ip), vehicle: saline with Tween-80 150 % of control
inactive: endpoint: median survival time, dose: 25.0 mg/kg/injection, schedule: Q01DX009 (ip), vehicle: distilled water + Tween-80 104 % of control | endpoint: median survival time, dose: 25.0 mg/kg/injection, schedule: Q01DX009 (ip), vehicle: saline with Tween-80 117 % of control | endpoint: median survival time, dose: 50.0 mg/kg/injection, schedule: Q01DX009 (ip), vehicle: distilled water + Tween-80 104 % of control | endpoint: median survival time, dose: 50.0 mg/kg/injection, schedule: Q01DX009 (ip), vehicle: saline with Tween-80 109 % of control | endpoint: median survival time, dose: 100.0 mg/kg/injection, schedule: Q01DX009 (ip), vehicle: distilled water + Tween-80 109 % of control | endpoint: median survival time, dose: 100.0 mg/kg/injection, schedule: Q01DX009 (ip), vehicle: saline with Tween-80 110 % of control | endpoint: median survival time, dose: 200.0 mg/kg/injection, schedule: Q01DX009 (ip), vehicle: distilled water + Tween-80 124 % of control

CCCCCCCCCCCCS(=O)(=O)O
inactive: endpoint: mean survival time, dose: 100.0 mg/kg/injection, schedule: Q04DX003 (ip), vehicle: saline with Tween-80 119 % of control | endpoint: mean survival time, dose: 200.0 mg/kg/injection, schedule: Q04DX003 (ip), vehicle: saline with Tween-80 119 % of control
